# Assay results as given in patent US20040018941A1, “Fused-benzene derivatives of thiouracil, herbicidal and desiccant compositions contaning them” (ISHIHARA SANGYO KAISHA, LTD., priority 2002, published 2004).
# Experiments:
# Type in all cases: in vivo
# Details in all cases: rating 0-100 (0 no damage, 100 complete death), 14 days after application
# [1] = test system: soybean (Glycine max L., var. Pella 86, SOY); assay: Post-emerge crop damage, greenhouse screen, SOY
# From the text: (§1) A standard greenhouse herbicide activity screening system was used to evaluate the herbicidal efficacy and crop safety of these test compounds. Seven broadleaf weed species including redroot pigweed (Amaranthus retroflexus, AMARE), velvetleaf (Abutilon theophrasti, ABUTH), sicklepod (Cassia obtusifolia, CASOB), ivyleaf morningglory (Ipomoea hederacea, IPOHE), lambsquarters (Chenopodium album, CHEAL), common ragweed (Ambrosia artemisiifolia L., AMBEL), and cocklebur (Xanthium strumarium, XANST) were used as test species. Four grass weed species including green foxtail (Setaria viridis, SETVI), barnyardgrass (Echinochloa crus-galli, ECHCG), johnsongrass (Sorghum halepense, SORHA), and large crabgrass (Digitaria sanguinalis, DIGSA) were also used. In addition, three crop species, field corn (Zea mays L., var. Dekalb 527, CORN), soybean (Glycine max L., var. Pella 86, SOY), and upland rice (Oryza sp., var. Tebonnet, RICE) were included.
# (§2) All plants were grown in 10 cm square plastic pots which were filled with a sandy loam soil mix. For pre-emerge tests, seeds were planted one day prior to application of the test compounds. For post-emerge tests, seeds were planted 8-21 days prior to the test to allow emergence and good foliage development prior to application of the test substances. At the time of the post-emerge application, plants of all species were usually at the 2-3 leaf stage of development.
# (§3) All test compounds were dissolved in acetone and applied to the test units in a volume of 187 l/ha. Test materials were applied at rates ranging from 15 g ai/ha to 1000 g ai/ha using a track sprayer equipped with a TJ8001 E even flow flat fan spray nozzle. Plants were arranged on a shelf so that the top of the canopy (post-emerge) or top of the soil surface (pre-emerge) was 40-45 cm below the nozzle. Pressurized air was used to force the test solution through the nozzle as it was mechanically advanced over the top of all test plants/pots. This application simulates a typical commercial field herbicide application.
# (§4) In the post-emerge test, a commercial non-ionic surfactant was also included (0.25% v/v) to enhance wetting of the leaf surfaces of target plants. Immediately after application, test units of the pre-emerge applications were watered at the soil surface to incorporate the test materials.
# (§5) At 14 days after application of the test materials, phytotoxicity ratings were recorded. A rating scale of 0-100 was used as previously described in Research Methods in Weed Science, 2nd edition, B. Truelove, Ed., Southern Weed Science Society, Auburn University, Auburn, Ala., 1977. Briefly, “0” corresponds to no damage and “100” corresponds to complete death of all plants in the test unit. This scale was used both to determine efficacy against weed species and damage to crop species. Herbicide activity data for various compounds of this invention, which are shown by compound No. in Tables 1-7, are shown in Tables 8 and 9.
# [2] = test system: green foxtail (Setaria viridis, SETVI); assay: Pre-emerge herbicidal activity, greenhouse screen, SETVI
# From the text: as §1, §2, §3, §4, §5
# [3] = test system: barnyardgrass (Echinochloa crus-galli, ECHCG); assay: Post-emerge herbicidal activity, greenhouse screen, ECHCG
# From the text: as §1, §2, §3, §4, §5
# [4] = test system: sicklepod (Cassia obtusifolia, CASOB); assay: Post-emerge herbicidal activity, greenhouse screen, CASOB
# From the text: as §1, §2, §3, §4, §5
# [5] = test system: johnsongrass (Sorghum halepense, SORHA); assay: Post-emerge herbicidal activity, greenhouse screen, SORHA
# From the text: as §1, §2, §3, §4, §5
# [6] = test system: large crabgrass (Digitaria sanguinalis, DIGSA); assay: Pre-emerge herbicidal activity, greenhouse screen, DIGSA
# From the text: as §1, §2, §3, §4, §5
# [7] = test system: velvetleaf (Abutilon theophrasti, ABUTH); assay: Post-emerge herbicidal activity, greenhouse screen, ABUTH
# From the text: as §1, §2, §3, §4, §5
# [8] = test system: upland rice (Oryza sp., var. Tebonnet, RICE); assay: Post-emerge crop damage, greenhouse screen, RICE
# From the text: as §1, §2, §3, §4, §5
# [9] = test system: green foxtail (Setaria viridis, SETVI); assay: Post-emerge herbicidal activity, greenhouse screen, SETVI
# From the text: as §1, §2, §3, §4, §5
# [10] = test system: johnsongrass (Sorghum halepense, SORHA); assay: Pre-emerge herbicidal activity, greenhouse screen, SORHA
# From the text: as §1, §2, §3, §4, §5
# [11] = test system: upland rice (Oryza sp., var. Tebonnet, RICE); assay: Pre-emerge crop damage, greenhouse screen, RICE
# From the text: as §1, §2, §3, §4, §5
# [12] = test system: common ragweed (Ambrosia artemisiifolia L., AMBEL); assay: Post-emerge herbicidal activity, greenhouse screen, AMBEL
# From the text: as §1, §2, §3, §4, §5
# [13] = test system: ivyleaf morningglory (Ipomoea hederacea, IPOHE); assay: Post-emerge herbicidal activity, greenhouse screen, IPOHE
# From the text: as §1, §2, §3, §4, §5
# [14] = test system: redroot pigweed (Amaranthus retroflexus, AMARE); assay: Post-emerge herbicidal activity, greenhouse screen, AMARE
# From the text: as §1, §2, §3, §4, §5
# [15] = test system: field corn (Zea mays L., var. Dekalb 527, CORN); assay: Post-emerge crop damage, greenhouse screen, CORN
# From the text: as §1, §2, §3, §4, §5
# [16] = test system: sicklepod (Cassia obtusifolia, CASOB); assay: Pre-emerge herbicidal activity, greenhouse screen, CASOB
# From the text: as §1, §2, §3, §4, §5
# [17] = test system: redroot pigweed (Amaranthus retroflexus, AMARE); assay: Pre-emerge herbicidal activity, greenhouse screen, AMARE
# From the text: as §1, §2, §3, §4, §5
# [18] = test system: lambsquarters (Chenopodium album, CHEAL); assay: Post-emerge herbicidal activity, greenhouse screen, CHEAL
# From the text: as §1, §2, §3, §4, §5
# [19] = test system: ivyleaf morningglory (Ipomoea hederacea, IPOHE); assay: Pre-emerge herbicidal activity, greenhouse screen, IPOHE
# From the text: as §1, §2, §3, §4, §5
# [20] = test system: field corn (Zea mays L., var. Dekalb 527, CORN); assay: Pre-emerge crop damage, greenhouse screen, CORN
# From the text: as §1, §2, §3, §4, §5
# [21] = test system: velvetleaf (Abutilon theophrasti, ABUTH); assay: Pre-emerge herbicidal activity, greenhouse screen, ABUTH
# From the text: as §1, §2, §3, §4, §5
# [22] = test system: common ragweed (Ambrosia artemisiifolia L., AMBEL); assay: Pre-emerge herbicidal activity, greenhouse screen, AMBEL
# From the text: as §1, §2, §3, §4, §5
# [23] = test system: lambsquarters (Chenopodium album, CHEAL); assay: Pre-emerge herbicidal activity, greenhouse screen, CHEAL
# From the text: as §1, §2, §3, §4, §5
# [24] = test system: barnyardgrass (Echinochloa crus-galli, ECHCG); assay: Pre-emerge herbicidal activity, greenhouse screen, ECHCG
# From the text: as §1, §2, §3, §4, §5
# [25] = test system: large crabgrass (Digitaria sanguinalis, DIGSA); assay: Post-emerge herbicidal activity, greenhouse screen, DIGSA
# From the text: as §1, §2, §3, §4, §5
# [26] = test system: soybean (Glycine max L., var. Pella 86, SOY); assay: Pre-emerge crop damage, greenhouse screen, SOY
# From the text: as §1, §2, §3, §4, §5
structure (smiles),measurement,setting,value
Cn1c(C(F)(F)F)cc(=O)n(-c2c(F)ccc3nc(C(C)(C)C)oc23)c1=S [Compound 1-5],Post-emerge Herbicidal Activity SOY (crop damage),[1]; 63 g ai/ha,50
same,Post-emerge Herbicidal Activity SOY (crop damage),[1]; 250 g ai/ha,75
same,Pre-emerge Herbicidal Activity SETVI,[2]; 63 g ai/ha,100
same,Pre-emerge Herbicidal Activity SETVI,[2]; 250 g ai/ha,100
same,Post-emerge Herbicidal Activity ECHCG,[3]; 63 g ai/ha,100
same,Post-emerge Herbicidal Activity ECHCG,[3]; 250 g ai/ha,100
same,Post-emerge Herbicidal Activity CASOB,[4]; 63 g ai/ha,60
same,Post-emerge Herbicidal Activity CASOB,[4]; 250 g ai/ha,90
same,Post-emerge Herbicidal Activity SORHA,[5]; 63 g ai/ha,55
same,Post-emerge Herbicidal Activity SORHA,[5]; 250 g ai/ha,75
same,Pre-emerge Herbicidal Activity DIGSA,[6]; 63 g ai/ha,100
same,Pre-emerge Herbicidal Activity DIGSA,[6]; 250 g ai/ha,100
same,Post-emerge Herbicidal Activity ABUTH,[7]; 63 g ai/ha,100
same,Post-emerge Herbicidal Activity ABUTH,[7]; 250 g ai/ha,100
same,Post-emerge Herbicidal Activity RICE (crop damage),[8]; 63 g ai/ha,65
same,Post-emerge Herbicidal Activity RICE (crop damage),[8]; 250 g ai/ha,70
same,Post-emerge Herbicidal Activity SETVI,[9]; 63 g ai/ha,80
same,Post-emerge Herbicidal Activity SETVI,[9]; 250 g ai/ha,85
same,Pre-emerge Herbicidal Activity SORHA,[10]; 63 g ai/ha,99
same,Pre-emerge Herbicidal Activity SORHA,[10]; 250 g ai/ha,100
same,Pre-emerge Herbicidal Activity RICE (crop damage),[11]; 63 g ai/ha,55
same,Pre-emerge Herbicidal Activity RICE (crop damage),[11]; 250 g ai/ha,80
same,Post-emerge Herbicidal Activity AMBEL,[12]; 63 g ai/ha,90
same,Post-emerge Herbicidal Activity AMBEL,[12]; 250 g ai/ha,100
same,Post-emerge Herbicidal Activity IPOHE,[13]; 63 g ai/ha,100
same,Post-emerge Herbicidal Activity IPOHE,[13]; 250 g ai/ha,100
same,Post-emerge Herbicidal Activity AMARE,[14]; 63 g ai/ha,99
same,Post-emerge Herbicidal Activity AMARE,[14]; 250 g ai/ha,100
same,Post-emerge Herbicidal Activity CORN (crop damage),[15]; 63 g ai/ha,15
same,Post-emerge Herbicidal Activity CORN (crop damage),[15]; 250 g ai/ha,30
same,Pre-emerge Herbicidal Activity CASOB,[16]; 63 g ai/ha,90
same,Pre-emerge Herbicidal Activity CASOB,[16]; 250 g ai/ha,100
same,Pre-emerge Herbicidal Activity AMARE,[17]; 63 g ai/ha,100
same,Pre-emerge Herbicidal Activity AMARE,[17]; 250 g ai/ha,100
same,Post-emerge Herbicidal Activity CHEAL,[18]; 63 g ai/ha,95
same,Post-emerge Herbicidal Activity CHEAL,[18]; 250 g ai/ha,100
same,Pre-emerge Herbicidal Activity IPOHE,[19]; 63 g ai/ha,100
same,Pre-emerge Herbicidal Activity IPOHE,[19]; 250 g ai/ha,100
same,Pre-emerge Herbicidal Activity CORN (crop damage),[20]; 63 g ai/ha,85
same,Pre-emerge Herbicidal Activity CORN (crop damage),[20]; 250 g ai/ha,100
same,Pre-emerge Herbicidal Activity ABUTH,[21]; 63 g ai/ha,100
same,Pre-emerge Herbicidal Activity ABUTH,[21]; 250 g ai/ha,100
same,Pre-emerge Herbicidal Activity AMBEL,[22]; 63 g ai/ha,99
same,Pre-emerge Herbicidal Activity AMBEL,[22]; 250 g ai/ha,100
same,Pre-emerge Herbicidal Activity CHEAL,[23]; 63 g ai/ha,100
same,Pre-emerge Herbicidal Activity CHEAL,[23]; 250 g ai/ha,100
same,Pre-emerge Herbicidal Activity ECHCG,[24]; 63 g ai/ha,100
same,Pre-emerge Herbicidal Activity ECHCG,[24]; 250 g ai/ha,100
same,Post-emerge Herbicidal Activity DIGSA,[25]; 63 g ai/ha,60
same,Post-emerge Herbicidal Activity DIGSA,[25]; 250 g ai/ha,75
same,Pre-emerge Herbicidal Activity SOY (crop damage),[26]; 63 g ai/ha,0
same,Pre-emerge Herbicidal Activity SOY (crop damage),[26]; 250 g ai/ha,99
